Holding throughout (assay type): cell-based, human
Series [1] concerns gene-transferred cell. The series is described as follows: Provirus copy number of the transferred gene. Particulars: Example 3, FIG. 11; ZsGreen gene, virus-bound plate; 10 nM retinoic acid; 7th day. The protocol: The provirus copy number of the transferred gene in the gene-transferred cell was measured with Provirus Copy Number Detection Primer Set. Human (manufactured by TAKARA BIO INC.). In FIG. 6, the ordinate axis indicates the copy number of the transferred gene in a gene-transferred cell. As a result, the copy number was increased by a combination of stimulation by an anti-CD3 antibody alone or fibronectin fragment/anti-CD3 antibody stimulation with addition of retinoic acid, and the increase of the copy number correlated with increase in gene transfer efficiency.
The results of measurement of the copy number of the transferred gene in the gene-transferred cell into which the gene was transferred using the virus-bound plate for gene transfer are shown in FIG. 11. In FIG. 11, the ordinate axis indicates the copy number of the transferred gene in the gene-transferred cell. As a result, the copy number under the combination condition of stimulation by an anti-CD3 antibody alone or fibronectin fragment/anti-CD3 antibody stimulation with addition of retinoic acid was about 2 times the copy number under the condition of no addition of retinoic acid. The copy number correlated with gene transfer efficiency.
The provirus copy number of the transferred gene in the cultured cells was measured using Provirus Copy Number Detection Primer Set. Human (manufactured by TAKARA BIO INC.). […]

In series [2] the test system is T2A24 cell pulsed with MAGE-A4. The series is described as follows: Specific cytotoxic activity of gene-transferred cells, Calcein release.
Procedure: Analysis of cytotoxicity of the gene-transferred cell on a MAGE-A4-derived peptide p143 was carried out. […] The suspension was cultured at 37° C. for 1 hour. The cells were washed with a medium not containing Calcein-AM, and mixed with a 10-fold amount of K562 cells (ATCC CCL-243) to prepare Calcein-labeled target cells. The K562 cells were used in order to exclude nonspecific cytotoxic activity due to NK cells commingling with responder cells. The cells on the 10th day after initiation of culture as effector cells were stepwisely diluted with a RPMI 1640 medium containing 10% FBS so as to be 1×10^5 to 1×10^6 cells/mL. Then, 100 μL/well of the dilution was dispended into each well of a 96-well cell culture plate. The Calcein-labeled target cells were adjusted to 1×10^5/mL and added to the wells at 100 μL/well. […] From the each well, 100 μL of the culture supernatant was removed, and the amount of Calcein released into the culture supernatant was measured with a fluorescent plate reader (485 nm/538 nm). “Specific cytotoxic activity (%)” was calculated according to the following mathematical formula 1.
Specific cytotoxic activity(%)=[{(measured value of each well)−(minimum released amount)}/{(maximum released amount)−(minimum released amount)}]×100 [Mathematical formula 1] […]
Series [3] concerns CD8 single positive and CD4 single positive cells. The series is described as follows: Proportion of ZsGreen positive cells by flow cytometry. Particulars: Example 3, FIG. 9; gene transfer using virus-bound (fibronectin fragment) plate; 10 nM retinoic acid; 7th day.
Procedure: A gene transfer operation was carried out as follows. […] The plate was cultured at 37° C. for 4 hours in a CO2 incubator. The cells after culturing were suspended at 0.1×10^6 cells/mL in a GT-T503 medium containing 1% autologous plasma, 720 IU/mL IL-2, 0.2% HSA, 2.5 μg/mL Fungizone and 10 nM retinoic acid. The resulting suspension was seeded on a 12-well plate, and cultured at 37° C. for 3 days. At the same time, a gene transfer operation and cell culture after gene transfer were similarly carried out using a cell suspension not containing retinoic acid as a control.
Regarding gene transfer using a virus-bound plate for gene transfer, the cell growth rate was measured on the 4th and 7th days, and cell surface markers, the proportion of ZsGreen positive cells and the copy number of a transferred gene were measured on the 7th day.
After initiation of stimulation of the PBMC, the cells on the 7th day in the case of gene transfer using the virus-bound plate for gene transfer, and the cells on the 6th day in the case of gene transfer by a polybrene method were reacted with a PE-Cy7-labeled anti-human CD4 antibody or an APC-Cy7-labeled anti-human CD8 antibody (manufactured by Becton Dickinson) at 4° C. for 20 minutes, washed and, then subjected to flow cytometry analysis using FACScant (manufactured by Becton Dickinson).
Series [4] relates to PBMC. The series is described as follows: Cell growth rate relative to cell number at initiation of culture. Particulars: Example 2, FIG. 2; fibronectin fragment/anti-CD3 antibody stimulation compared with anti-CD3 antibody alone, regardless of presence or absence of retinoic acid. The method, then:
A PBMC prepared from a healthy person from whom informed consent had been obtained was suspended at 0.18×10^6 cells/mL in a GT-T503 medium containing 1% autologous plasma, 720 IU/mL IL-2, 0.2% HSA, 2.5 μg/mL Fungizone and 10 nM retinoic acid. The suspension was added to the fibronectin fragment/anti-CD3 antibody-adherent plate or the anti-CD3 antibody-adherent plate at 2.65 mL/well. As controls, a cell suspension not containing retinoic acid was added to the plates. Each plate was cultured at 37° C. for 4 days in a CO2 incubator.
A gene transfer operation was carried out as follows. The PBMC which had been stimulated with an anti-CD3 antibody alone or a fibronectin fragment/an anti-CD3 antibody for 4 days was added to the virus-bound plate at 0.8×10^6 cells/2.0 mL/well. This plate was cultured at 37° C. overnight in a CO2 incubator. […]
On the 7th day after initiation of stimulation of the PBMC, the cell was seeded at 0.1×10^6 cells/mL, and cultured until the 10th day. The cell growth rate was measured on the 4th, 5th, 7th and 10th days. On the 4th day, cell surface markers before the cell was transferred to the virus-bound plate were measured. On the 10th day, cell surface markers, expression of a transferred TCR and the copy number of a transferred gene were measured. […]

On to `CC1=C(/C=C/C(C)=C/C=C/C(C)=C/C(=O)O)C(C)(C)CCC1` [retinoic acid], for which the “copy number of the transferred gene relative to no addition of retinoic acid” value in series [1] is given as “about 2 times”. Besides, the “cytotoxic activity on the specific target cells” value was “high” in series [2] (Example 4, FIG. 15, retinoic acid stimulation group vs absence, cells on 10th day, each E/T ratio); “higher” in series [2] (Example 5, FIG. 22, RR, OR and R- groups vs O-, E/T 1:1, cells on 11th day). Moreover, the “increase of proportion of ZsGreen positive cells as compared with no addition of retinoic acid” value in series [3] is 1.5 fold.
Take “fibronectin fragment: recombinant fibronectin fragment CH-296, commercially available as RetroNectin (TAKARA BIO INC.)”: in series [4], the cell growth rate result is reported as “higher”.

(Values after patent publication US20120142109A1, “METHOD FOR PRODUCING T CELL POPULATION UNDER PRESENCE OF RETINOIC ACID” (priority 2009, published 2012).)
